From PubChem BioAssay (NCI)
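A five-concentration, 48-hour dose response in 96-well plates underlies each endpoint, interpolated linearly between surrounding concentrations. Abbreviation: GI50, concentration required for 50% inhibition of growth. TGI is the concentration that stops growth completely.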

Columns and labels:
Test in all cases: DTP human tumour cell line panel, 48 h
[1] = tested on: UACC-257 melanoma
[2] = tested on: A498 renal
[3] = tested on: UO-31 renal
[4] = tested on: SF-539 CNS
[5] = tested on: HL-60(TB) leukemia
[6] = tested on: RPMI-8226 leukemia
[7] = tested on: LOX IMVI melanoma
[8] = tested on: NCI-H522 lung
[9] = tested on: SW-620 colon
[10] = tested on: HT29 colon
[11] = tested on: TK-10 renal
[12] = tested on: HCC-2998 colon
[13] = tested on: SF-268 CNS
[14] = tested on: DU-145 prostate
[15] = tested on: MALME-3M melanoma
[16] = tested on: ACHN renal
[17] = tested on: PC-3 prostate
[18] = tested on: NCI-H226 lung
[19] = tested on: SF-295 CNS
[20] = tested on: SK-MEL-2 melanoma
[21] = tested on: HOP-92 NSCLC
[22] = tested on: OVCAR-8 ovarian
[23] = tested on: SN12C renal
[24] = tested on: UACC-62 melanoma
[25] = tested on: NCI-H23 lung
[26] = tested on: SK-MEL-5 melanoma
[27] = tested on: CCRF-CEM leukemia
[28] = tested on: SK-OV-3 ovarian
[29] = tested on: HCT-15 colon
[30] = tested on: KM12 colon
[31] = tested on: SK-MEL-28 melanoma
[32] = tested on: HCT-116 colon
[33] = tested on: OVCAR-5 ovarian
[34] = tested on: T-47D breast
[35] = tested on: OVCAR-3 ovarian
[36] = tested on: U251 CNS
[37] = tested on: K-562 leukemia
[38] = tested on: IGROV1 ovarian
[39] = tested on: A549 NSCLC
[40] = tested on: BT-549 breast
[41] = tested on: SR leukemia
[42] = tested on: EKVX NSCLC
[43] = tested on: MDA-MB-231 breast
[44] = tested on: MOLT-4 leukemia
[45] = tested on: 786-0 renal
[46] = tested on: RXF 393 renal
[47] = tested on: OVCAR-4 ovarian
[48] = tested on: NCI/ADR-RES ovarian
[49] = tested on: MCF7 breast
[50] = tested on: NCI-H460 lung
[51] = tested on: CAKI-1 renal
[52] = tested on: HS 578T breast
[53] = tested on: SNB-19 CNS
[54] = tested on: HOP-62 NSCLC
[55] = tested on: SNB-75 CNS
[56] = tested on: MDA-MB-435
[57] = tested on: M14 melanoma
[58] = tested on: COLO 205 colon

COc1ccc(/C=C/C(=O)c2cc3c(N)c(C(=O)Nc4ccccc4C)sc3nc2C)cc1
GI50 [1]: 16.1 µM
TGI [1]: > 50 µM
GI50 [2]: 0.197 µM
TGI [2]: 2.64 µM
GI50 [3]: 0.861 µM
TGI [3]: > 50 µM
GI50 [4]: 0.487 µM
TGI [4]: 1.68 µM
GI50 [5]: 0.239 µM
TGI [5]: 1.99 µM
GI50 [6]: 1.4 µM
TGI [6]: > 25.5 µM
GI50 [7]: 0.768 µM
TGI [7]: 5.21 µM
GI50 [8]: 0.194 µM
TGI [8]: > 50 µM
GI50 [9]: 0.83 µM
TGI [9]: > 50 µM
GI50 [10]: 0.487 µM
TGI [10]: > 50 µM
GI50 [11]: 2.48 µM
TGI [11]: > 50 µM
GI50 [12]: 1.09 µM
TGI [12]: 3.61 µM
GI50 [13]: 1.24 µM
TGI [13]: > 50 µM
GI50 [14]: 0.431 µM
TGI [14]: > 23.4 µM
GI50 [15]: 0.248 µM
TGI [15]: > 50 µM
GI50 [16]: 0.36 µM
TGI [16]: > 50 µM
GI50 [17]: 0.285 µM
TGI [17]: > 50 µM
GI50 [18]: 0.619 µM
TGI [18]: 12.2 µM
GI50 [19]: 0.497 µM
TGI [19]: > 50 µM
GI50 [20]: 0.387 µM
TGI [20]: > 50 µM
GI50 [21]: 0.6 µM
TGI [21]: 32.3 µM
GI50 [22]: 1.14 µM
TGI [22]: > 50 µM
GI50 [23]: 0.833 µM
TGI [23]: > 50 µM
GI50 [24]: 0.275 µM
TGI [24]: > 50 µM
GI50 [25]: 0.969 µM
TGI [25]: > 50 µM
GI50 [26]: 0.214 µM
TGI [26]: 7.58 µM
GI50 [27]: 0.475 µM
TGI [27]: > 50 µM
GI50 [28]: 0.605 µM
TGI [28]: > 50 µM
GI50 [29]: 0.52 µM
TGI [29]: > 50 µM
GI50 [30]: 1.07 µM
TGI [30]: 4.8 µM
GI50 [31]: 7.14 µM
TGI [31]: > 50 µM
GI50 [32]: 0.53 µM
TGI [32]: > 50 µM
GI50 [33]: 1.39 µM
TGI [33]: > 50 µM
GI50 [34]: 0.322 µM
TGI [34]: > 50 µM
GI50 [35]: 0.168 µM
TGI [35]: 0.955 µM
GI50 [36]: 1.4 µM
TGI [36]: > 50 µM
GI50 [37]: 0.267 µM
TGI [37]: > 50 µM
GI50 [38]: 0.655 µM
TGI [38]: > 50 µM
GI50 [39]: 0.905 µM
TGI [39]: > 50 µM
GI50 [40]: 0.568 µM
TGI [40]: > 50 µM
GI50 [41]: 0.593 µM
TGI [41]: > 50 µM
GI50 [42]: 1.88 µM
TGI [42]: > 50 µM
GI50 [43]: 1.18 µM
TGI [43]: > 38.5 µM
GI50 [44]: 0.747 µM
TGI [44]: > 50 µM
GI50 [45]: 0.489 µM
TGI [45]: > 50 µM
GI50 [46]: 0.14 µM
TGI [46]: 0.423 µM
GI50 [47]: 1.42 µM
TGI [47]: > 50 µM
GI50 [48]: 0.228 µM
TGI [48]: 2 µM
GI50 [49]: 0.24 µM
TGI [49]: > 50 µM
GI50 [50]: 1.53 µM
TGI [50]: > 16.6 µM
GI50 [51]: 0.392 µM
TGI [51]: > 50 µM
GI50 [52]: 0.188 µM
TGI [52]: > 50 µM
GI50 [53]: 1.15 µM
TGI [53]: > 50 µM
GI50 [54]: 0.779 µM
TGI [54]: > 50 µM
GI50 [55]: 0.17 µM
TGI [55]: 1.85 µM

COC(=O)C[C@H](COCc1ccccc1)NC(=O)C[C@H](COCc1ccccc1)NC(=O)OC(C)(C)C
TGI [2]: 61.9 µM
TGI [3]: > 100 µM
TGI [4]: > 100 µM
TGI [5]: > 100 µM
TGI [6]: > 100 µM
TGI [7]: > 100 µM
TGI [8]: 54 µM
TGI [9]: > 100 µM
TGI [10]: > 100 µM
TGI [13]: 40.5 µM
TGI [14]: 44.9 µM
TGI [15]: > 100 µM
TGI [16]: > 100 µM
TGI [17]: 77.6 µM
TGI [56]: > 100 µM
TGI [18]: > 100 µM
TGI [19]: > 100 µM
TGI [20]: > 100 µM
TGI [21]: 65.5 µM
TGI [22]: 61.7 µM
TGI [23]: 80.6 µM
TGI [24]: > 100 µM
TGI [57]: > 100 µM
TGI [25]: > 100 µM
TGI [26]: > 100 µM
TGI [27]: > 100 µM
TGI [28]: 59.8 µM
TGI [29]: > 100 µM
TGI [30]: > 100 µM
TGI [31]: > 100 µM
TGI [32]: 81.2 µM
TGI [33]: 99.8 µM
TGI [34]: 98.7 µM
TGI [35]: 86.9 µM
TGI [36]: 67.7 µM
TGI [37]: > 100 µM
TGI [38]: > 100 µM
TGI [39]: 62.4 µM
TGI [40]: 51.9 µM
TGI [41]: > 100 µM
TGI [42]: 45.4 µM
TGI [43]: > 100 µM
TGI [44]: > 100 µM
TGI [45]: 40.8 µM
TGI [46]: 63.3 µM
TGI [47]: 36.7 µM
TGI [58]: > 100 µM
TGI [48]: 72.2 µM
TGI [49]: 51.1 µM
TGI [51]: > 100 µM
TGI [52]: 67.1 µM
TGI [53]: 44.2 µM
TGI [54]: 49.2 µM
TGI [55]: 61.2 µM
